{
  "source": "paper PMC6321621",
  "about": "“Design of a Novel and Selective IRAK4 Inhibitor Using Topological Water Network Analysis and Molecular Modeling Approaches” (Molecules, 2018)",
  "assay_type_in_all_cases": "biochemical",
  "key": {"[1]": {"biological_target": "T1, IRAK4 (h) (Homo sapiens, UniProt Q9NWZ3)", "T1 construct": "purchased Eurofins Scientific Inc. Korea (contract assay service)", "T1 sequence (Q9NWZ3 1-460)": "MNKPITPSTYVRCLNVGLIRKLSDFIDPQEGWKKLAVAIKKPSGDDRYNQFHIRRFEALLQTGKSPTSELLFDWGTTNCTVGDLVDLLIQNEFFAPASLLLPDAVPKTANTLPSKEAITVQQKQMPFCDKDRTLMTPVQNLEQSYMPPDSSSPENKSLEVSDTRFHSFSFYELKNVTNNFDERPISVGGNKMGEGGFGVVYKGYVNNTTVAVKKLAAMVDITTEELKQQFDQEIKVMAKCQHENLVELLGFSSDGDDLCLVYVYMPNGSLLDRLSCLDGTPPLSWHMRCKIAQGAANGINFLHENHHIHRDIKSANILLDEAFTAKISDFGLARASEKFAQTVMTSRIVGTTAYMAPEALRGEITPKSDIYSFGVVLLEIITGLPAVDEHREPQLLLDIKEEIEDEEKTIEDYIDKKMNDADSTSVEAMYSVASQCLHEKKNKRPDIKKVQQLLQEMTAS", "experiment": "Enzymatic assay for IRAK4 (radiometric, Eurofins)", "conditions": "for IC50: in vitro enzymatic assay, duplicate, average, read-out: IC50 against IRAK4", "description": "(§1) Enzymatic assays for IRAK4, ASK1, ITK, and LYN were performed by Eurofins Scientific Inc. Korea (Brussels, Belgium). All assays were performed in duplicate, and the average IC50 value was reported.\n(§2) IRAK4 (h) was incubated with 8 mM MOPS pH 7.0, 0.2 mM EDTA, 0.33 mg/mL myelin basic protein, 10 mM Mg acetate and [γ-^33P]-ATP (specific activity approx. 500 cpm/pmol, concentration as required). The reaction was initiated by the addition of a MgATP mix. After incubation for 40 min at room temperature, the reaction was stopped by the addition of 3% phosphoric acid solution. A total of 10 μL of the reaction was then spotted onto a P30 filtermat and washed three times for 5 min in 75 mM phosphoric acid, and once in methanol prior to drying and scintillation counting."}, "[2]": {"biological_target": "T2, ITK (h) (Homo sapiens, UniProt Q08881)", "T2 construct": "purchased Eurofins Scientific Inc. Korea (contract assay service)", "T2 sequence (Q08881 1-620)": "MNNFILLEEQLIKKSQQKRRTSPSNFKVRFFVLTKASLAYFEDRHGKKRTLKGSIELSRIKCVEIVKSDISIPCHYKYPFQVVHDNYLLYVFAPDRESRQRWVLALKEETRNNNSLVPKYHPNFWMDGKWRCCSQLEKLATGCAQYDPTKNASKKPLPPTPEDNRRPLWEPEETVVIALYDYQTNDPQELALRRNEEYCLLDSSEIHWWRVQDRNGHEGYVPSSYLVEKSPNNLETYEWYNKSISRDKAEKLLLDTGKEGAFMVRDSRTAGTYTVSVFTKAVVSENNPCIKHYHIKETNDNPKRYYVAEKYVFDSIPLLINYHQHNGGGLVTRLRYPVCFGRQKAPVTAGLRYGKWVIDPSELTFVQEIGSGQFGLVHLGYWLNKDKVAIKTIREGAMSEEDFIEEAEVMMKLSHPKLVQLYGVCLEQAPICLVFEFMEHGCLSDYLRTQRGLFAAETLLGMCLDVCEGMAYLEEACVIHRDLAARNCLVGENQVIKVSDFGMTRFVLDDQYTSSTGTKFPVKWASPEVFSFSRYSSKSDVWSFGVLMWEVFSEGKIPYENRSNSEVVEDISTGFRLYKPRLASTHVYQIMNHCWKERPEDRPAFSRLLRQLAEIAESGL", "experiment": "Enzymatic assay for ITK (radiometric, Eurofins)", "conditions": "in vitro enzymatic assay, duplicate, average; read-out: IC50 against ITK", "description": "as §2, with “Enzymatic assays for IRAK4, ASK1, ITK, and LYN were performed by Eurofins Scientific Inc. Korea (Brussels, Belgium). All assays were performed in duplicate, and the average IC50 value was reported. ITK (h)” for “IRAK4 (h)”, “Mg acetate,” for “Mg acetate”, “of the” for “of a”"}, "[3]": {"biological_target": "T3, LYN (h) (Homo sapiens, UniProt P07948)", "T3 construct": "purchased Eurofins Scientific Inc. Korea (contract assay service)", "T3 sequence (P07948 whole entry)": "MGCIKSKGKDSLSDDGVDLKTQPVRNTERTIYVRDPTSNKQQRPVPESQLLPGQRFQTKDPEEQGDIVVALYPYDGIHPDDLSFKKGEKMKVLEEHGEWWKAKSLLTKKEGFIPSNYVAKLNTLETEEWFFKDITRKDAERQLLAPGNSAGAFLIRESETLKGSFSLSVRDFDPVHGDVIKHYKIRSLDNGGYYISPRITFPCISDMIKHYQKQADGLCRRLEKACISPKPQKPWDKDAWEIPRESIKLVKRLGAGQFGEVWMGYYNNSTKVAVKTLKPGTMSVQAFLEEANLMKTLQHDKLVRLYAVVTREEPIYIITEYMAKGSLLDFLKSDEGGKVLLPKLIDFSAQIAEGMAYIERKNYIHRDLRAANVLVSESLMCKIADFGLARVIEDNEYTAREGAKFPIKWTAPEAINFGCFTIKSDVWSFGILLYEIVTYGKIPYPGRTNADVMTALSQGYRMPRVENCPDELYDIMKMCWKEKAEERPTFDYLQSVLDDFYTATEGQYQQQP", "experiment": "Enzymatic assay for LYN (radiometric, Eurofins)", "conditions": "in vitro enzymatic assay, duplicate, average; read-out: IC50 against LYN", "description": "Enzymatic assays for IRAK4, ASK1, ITK, and LYN were performed by Eurofins Scientific Inc. Korea (Brussels, Belgium). All assays were performed in duplicate, and the average IC50 value was reported. LYN (h) was incubated with 50 mM Tris pH 7.5, 0.1 mM EGTA, 0.1 mM Na3VO4, 0.1% […], 0.1 mg/mL poly(Glu, Tyr) 4:1, 10 mM Mg acetate, and [γ-^33P]-ATP (specific activity approx. 500 cpm/pmol, concentration as required). The reaction was initiated by the addition of the MgATP mix. After incubation for 40 min at room temperature, the reaction was stopped by the addition of 3% phosphoric acid solution. A total of 10 μL of the reaction was then spotted onto a Filtermat A and washed three times for 5 min in 75 mM phosphoric acid, and once in methanol prior to drying and scintillation counting."}, "[4]": {"biological_target": "T4, ASK1 (h) (Homo sapiens, UniProt Q99683)", "T4 construct": "purchased Eurofins Scientific Inc. Korea (contract assay service)", "T4 sequence (Q99683 1-1374)": "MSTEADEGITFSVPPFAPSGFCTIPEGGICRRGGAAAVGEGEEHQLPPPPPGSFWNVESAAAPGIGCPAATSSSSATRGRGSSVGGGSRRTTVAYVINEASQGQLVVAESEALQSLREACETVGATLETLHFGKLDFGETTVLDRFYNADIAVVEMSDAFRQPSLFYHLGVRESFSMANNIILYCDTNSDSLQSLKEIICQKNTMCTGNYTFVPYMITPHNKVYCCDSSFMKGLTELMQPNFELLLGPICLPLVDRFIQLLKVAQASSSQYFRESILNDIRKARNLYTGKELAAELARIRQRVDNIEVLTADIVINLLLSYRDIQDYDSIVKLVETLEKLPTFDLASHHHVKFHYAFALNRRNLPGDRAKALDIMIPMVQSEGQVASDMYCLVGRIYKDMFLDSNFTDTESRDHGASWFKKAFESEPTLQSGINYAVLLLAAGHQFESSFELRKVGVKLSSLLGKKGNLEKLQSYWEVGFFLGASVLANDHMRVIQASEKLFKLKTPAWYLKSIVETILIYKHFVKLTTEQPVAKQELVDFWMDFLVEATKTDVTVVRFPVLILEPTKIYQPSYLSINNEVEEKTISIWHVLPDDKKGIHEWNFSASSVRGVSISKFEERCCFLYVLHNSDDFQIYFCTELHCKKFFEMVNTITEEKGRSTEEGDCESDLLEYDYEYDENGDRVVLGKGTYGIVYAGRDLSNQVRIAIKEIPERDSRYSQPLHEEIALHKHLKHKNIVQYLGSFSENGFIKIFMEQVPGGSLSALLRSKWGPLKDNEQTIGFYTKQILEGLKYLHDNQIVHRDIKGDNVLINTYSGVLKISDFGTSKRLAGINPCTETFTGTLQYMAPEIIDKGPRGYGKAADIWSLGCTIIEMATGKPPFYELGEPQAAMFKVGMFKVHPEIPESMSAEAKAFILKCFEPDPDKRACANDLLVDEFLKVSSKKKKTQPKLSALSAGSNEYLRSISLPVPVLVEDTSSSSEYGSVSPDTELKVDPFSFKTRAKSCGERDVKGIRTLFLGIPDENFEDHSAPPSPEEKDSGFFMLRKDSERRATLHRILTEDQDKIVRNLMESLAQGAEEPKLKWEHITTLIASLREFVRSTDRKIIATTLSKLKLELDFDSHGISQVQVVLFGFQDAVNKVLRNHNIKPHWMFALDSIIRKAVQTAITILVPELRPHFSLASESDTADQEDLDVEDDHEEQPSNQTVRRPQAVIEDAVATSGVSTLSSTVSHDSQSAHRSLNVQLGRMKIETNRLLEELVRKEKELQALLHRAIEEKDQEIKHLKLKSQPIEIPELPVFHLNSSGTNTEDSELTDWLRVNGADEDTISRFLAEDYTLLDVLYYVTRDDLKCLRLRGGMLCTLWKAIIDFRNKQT", "experiment": "Enzymatic assay for ASK1 (radiometric, Eurofins)", "conditions": "in vitro enzymatic assay, duplicate, average; read-out: IC50 against ASK1", "description": "as §1\nas §2, with “ASK1 (h)” for “IRAK4 (h)”, “of the” for “of a”"}},
  "data": [
    {"molecule": "4-(5-Benzylamino-imidazo[4,5-b]pyridine-1-yl)-benzonitrile [Compound 3]", "values": [
      {"measurement": "inhibition of IRAK4", "setting": "[1]; at 10 μM", "value": 97, "unit": "%"},
      {"measurement": "IC50", "setting": "[1]", "value": 158, "unit": "nM"}
    ]},
    {"molecule": "CC(C)(C)c1ccc(C(=O)Nc2cn3cc(-n4ccnc4)ccc3n2)cc1", "note": "[Compound 1]", "values": [
      {"measurement": "IC50", "setting": "[2]", "value": 1670, "unit": "nM"},
      {"measurement": "IC50", "setting": "[3]", "value": 2390, "unit": "nM"},
      {"measurement": "IC50", "setting": "[1]", "value": 187, "unit": "nM"},
      {"measurement": "IC50", "setting": "[4]", "value": 53, "unit": "nM"}
    ]},
    {"molecule": "COCc1nc2ccc(NC(=O)c3ccc(Br)o3)cc2[nH]1", "note": "[Compound 2]", "values": [
      {"measurement": "IC50", "setting": "[1]", "value": 6650, "unit": "nM"}
    ]}
  ]
}
